Key:
[1] = Bioavailability in Han-Wistar rat at 5 umol/kg, po; assay type: ADME, organism-based; settings: in vivo
[2] = Half life in Han-Wistar rat at 1.0 umol/kg, iv; assay type: ADME, organism-based; settings: in vivo
[3] = AUC in Han-Wistar rat at 1.0 umol/kg, iv; assay type: ADME, organism-based; settings: plasma
[4] = Clearance in Han-Wistar rat at 1.0 umol/kg, iv; assay type: ADME, organism-based; settings: in vivo
[5] = Volume of distribution at steady state in Han-Wistar rat at 1.0 umol/kg, iv; assay type: ADME, organism-based; settings: in vivo, read-out: Vdss
[6] = Half life in nude mouse at 2.0 umol/kg, iv; assay type: ADME, organism-based; settings: in vivo
[7] = Volume of distribution at steady state in nude mouse at 2.0 umol/kg, iv; assay type: ADME, organism-based; settings: in vivo, read-out: Vdss
[8] = AUC in Han-Wistar rat at 5 umol/kg, po; assay type: ADME, organism-based; settings: plasma
[9] = Bioavailability in Han-Wistar rat at 20 umol/kg, po; assay type: ADME, organism-based; settings: in vivo
[10] = AUC in Han-Wistar rat at 20 umol/kg, po; assay type: ADME, organism-based; settings: plasma
[11] = AUC in nude mouse at 2.0 umol/kg, iv; assay type: ADME, organism-based; settings: plasma
[12] = Distribution coefficient, log D of the compound; assay type: physicochemical; settings: octanol/water
[13] = Clearance in nude mouse at 2.0 umol/kg, iv; assay type: ADME, organism-based; settings: in vivo

bioavailability [1]: 21%
half-life [2]: 348 min
AUC [3]: 1.4 µM·h
clearance [4]: 11.9 mL/min/kg
Vd [5]: 1.7 L/kg
half-life [6]: 1000 min
Vd [7]: 9.5 L/kg
AUC [8]: 1.5 µM·h
bioavailability [9]: 47%
AUC [10]: 13.7 µM·h
AUC [11]: 1.8 µM·h
logD [12]: 3
clearance [13]: 18.5 mL/min/kg
Compound: CNC(=O)c1ccc(Nc2nccc(-c3cnc(C)n3C(C)C)n2)cc1F

Reference: ChEMBL document CHEMBL1152177, “Imidazole pyrimidine amides as potent, orally bioavailable cyclin-dependent kinase inhibitors” (Bioorg Med Chem Lett, 2008)
